{"source": "patent US20250360235A1", "about": "“RADI[…] AND METHOD FOR RADIOLABELLING” (Telix Innovations SA, priority 2024, published 2025)", "key": {"[1]": {"assay": "Visual inspection of [68Ga]PSMA-11 solution (acceptance: colourless to slightly yellow solution, free from visible particles)", "assay_type": "physicochemical", "design": "key: C = conforms to specifications", "protocol": "(§1) Table 1 to Table 5 show the results of various radiolabelling experiments on radiochemical purity and the chelation yield. The radiolabelling experiments in the tables are carried out as described in: • Example 1 for when the gallium-68 source is GE Liquid target generator and EZAG GalliaPharm generator; • Example 2 for when the gallium-68 source is IRE Galli Eo generator; • Example 3 for when the gallium-68 source is GE solid target generator;\n(§2) However, the experiments were carried out with the amount of ascorbic acid as indicated in the Tables 1 to 5, and the activity as indicated in the Tables 1 to 5. Radiochemical purities were measured at various times (T0, T1, T4, T6) after the radiolabelled experiments have been conducted.\n(§3) The kits of Example 1, Example 2 or Example 3, with amounts of ascorbic acid as set out in Table 7 were used in the experiments for the ascorbic acid bracketing matrix. Three strengths of [^68Ga]Ga-PSMA-11 will be tested, i.e. 50 mCi/ml, 7 mCi/ml and 1 mCi/ml. Radiochemical purity was determined at different time points (TO, T1, T4 or T6), as set out in Table 7."}, "[2]": {"assay": "pH of [68Ga]PSMA-11 solution (acceptance 4.0-5.0)", "assay_type": "physicochemical", "protocol": "(§4) 100 μl of the ascorbic acid solution (equivalent to 25 mg ascorbic acid) was taken from vial 3, and was filtered through a 5 μm filter needle. The sodium ascorbate solution was subsequently added to vail 2, and mixed thoroughly. The obtained content of vial 2 was added to vial 1, and again mixed thoroughly. To this obtained vail 1, the eluate, comprising the gallium-68, was added to obtain a gallium-68 labelled PSMA-11 solution. Optionally, a 2.5 ml 0.9% sodium chloride solution may be added to increase the volume and/or to amend the osmolality to be under 1000 mOsm/kg.\nThe pH of the gallium-68 labelled PSMA-11 solution was 4.5 immediately after the radiolabelling procedure and was unchanged after 4 hours.\nas §4, with “a Gallium-68” for “a gallium-68”, “a” for “a 2.5 ml 0.9%”, “volume of the obtained Gallium-68 labelled PSMA-11 solution” for “volume”, “mOsm/kg. The pH of the gallium-68 labelled PSMA-11 solution was 4.5 immediately after the radiolabelling procedure and was unchanged after 4 hours.” for “mOsm/kg.”\nas §4, with “a Gallium-68” for “a gallium-68”, “a” for “a 2.5 ml 0.9%”, “volume of the obtained Gallium-68 labelled PSMA-11 solution” for “volume”, “mOsm/kg. The pH of the gallium-68 labelled PSMA-11 solution was 4.5 immediately after the radiolabelling procedure and was unchanged after 6 hours.” for “mOsm/kg.”\nas §1, §2, §3"}, "[3]": {"settings": "1 mg ascorbic acid, 58.7-71.1 mCi, 7.47-8.99 mCi/mL, GE Liquid target, n=3, T0"}, "[4]": {"settings": "1 mg ascorbic acid, 58.7-71.1 mCi, 7.47-8.99 mCi/mL, GE Liquid target, n=3, T4 (4 h)"}, "[5]": {"settings": "2.5 mg ascorbic acid, 49.9-76.9 mCi, 6.31-9.72 mCi/mL, GE Liquid target, n=3, T0"}, "[6]": {"settings": "2.5 mg ascorbic acid, 49.9-76.9 mCi, 6.31-9.72 mCi/mL, GE Liquid target, n=3, T4 (4 h)"}, "[7]": {"settings": "5 mg ascorbic acid, 60-69.9 mCi, 7.61-8.81 mCi/mL, 3 × GE Liquid Target, 3 × EZAG GalliaPharm, n=6, T0"}, "[8]": {"settings": "5 mg ascorbic acid, 60-69.9 mCi, 7.61-8.81 mCi/mL, 3 × GE Liquid Target, 3 × EZAG GalliaPharm, n=6, T4 (4 h)"}, "[9]": {"settings": "10 mg ascorbic acid, 458-500 mCi, 43.4-47.3 mCi/mL, GE Solid Target, n=3, T0"}, "[10]": {"settings": "10 mg ascorbic acid, 458-500 mCi, 43.4-47.3 mCi/mL, GE Solid Target, n=3, T4 (4 h)"}, "[11]": {"settings": "10 mg ascorbic acid, 514-520 mCi, 49.0-66.1 mCi/mL, GE Solid Target, n=3, T0"}, "[12]": {"settings": "10 mg ascorbic acid, 514-520 mCi, 49.0-66.1 mCi/mL, GE Solid Target, n=3, T6 (6 h)"}, "[13]": {"settings": "15 mg ascorbic acid, 10.0-18.4 mCi, 0.95-1.77 mCi/mL, 1 × EZAG GalliaPharm, 2 × IRE Galli Eo, n=3, T0"}, "[14]": {"settings": "15 mg ascorbic acid, 10.0-18.4 mCi, 0.95-1.77 mCi/mL, 1 × EZAG GalliaPharm, 2 × IRE Galli Eo, n=3, T1 (1 h)"}, "[15]": {"settings": "15 mg ascorbic acid, 23.7-47.6 mCi, 2.26-4.53 mCi/mL, 1 × EZAG GalliaPharm, 2 × IRE Galli Eo, n=3, T0"}, "[16]": {"settings": "15 mg ascorbic acid, 23.7-47.6 mCi, 2.26-4.53 mCi/mL, 1 × EZAG GalliaPharm, 2 × IRE Galli Eo, n=3, T4 (4 h)"}, "[17]": {"settings": "20 mg ascorbic acid, 514-544 mCi, 48.3-51.9 mCi/mL, GE Solid Target, n=2, T0"}, "[18]": {"settings": "20 mg ascorbic acid, 514-544 mCi, 48.3-51.9 mCi/mL, GE Solid Target, n=2, T6 (6 h)"}}, "data": [{"compound": "O=C([O-])CN(CCN(CC(=O)[O-])Cc1cc(CCC(=O)NCCCCCC(=O)NCCCC[C@H](NC(=O)N[C@@H](CCC(=O)O)C(=O)O)C(=O)O)ccc1[O-])Cc1cc(CCC(=O)O)ccc1[O-].[68Ga+3].[OH3+]", "note": "[[^68Ga]PSMA-11, gallium-68 radiolabelled Glu-urea-Lys-HBED-CC (gozetotide or PSMA-11)]", "values": [{"measurement": "Visual Inspection", "setting": "[1]; [3]", "result": "C"}, {"measurement": "Visual Inspection", "setting": "[1]; [4]", "result": "C"}, {"measurement": "Visual Inspection", "setting": "[1]; [5]", "result": "C"}, {"measurement": "Visual Inspection", "setting": "[1]; [6]", "result": "C"}, {"measurement": "Visual Inspection", "setting": "[1]; [7]", "result": "C"}, {"measurement": "Visual Inspection", "setting": "[1]; [8]", "result": "C"}, {"measurement": "Visual Inspection", "setting": "[1]; [9]", "result": "C"}, {"measurement": "Visual Inspection", "setting": "[1]; [10]", "result": "C"}, {"measurement": "Visual Inspection", "setting": "[1]; [11]", "result": "C"}, {"measurement": "Visual Inspection", "setting": "[1]; [12]", "result": "C"}, {"measurement": "Visual Inspection", "setting": "[1]; [13]", "result": "C"}, {"measurement": "Visual Inspection", "setting": "[1]; [14]", "result": "C"}, {"measurement": "Visual Inspection", "setting": "[1]; [15]", "result": "C"}, {"measurement": "Visual Inspection", "setting": "[1]; [16]", "result": "C"}, {"measurement": "Visual Inspection", "setting": "[1]; [17]", "result": "C"}, {"measurement": "Visual Inspection", "setting": "[1]; [18]", "result": "C"}, {"measurement": "Visual Inspection", "setting": "[1]; 50 mg ascorbic acid, 560 mCi, 71.1 mCi/mL, GE Solid Target, n=1, T0", "result": "C"}, {"measurement": "Visual Inspection", "setting": "[1]; 50 mg ascorbic acid, 560 mCi, 71.1 mCi/mL, GE Solid Target, n=1, T6 (6 h)", "result": "C"}, {"measurement": "pH", "setting": "[2]; [3]", "result": "C (C = conforms to specifications)"}, {"measurement": "pH", "setting": "[2]; [4]", "result": "C (C = conforms to specifications)"}, {"measurement": "pH", "setting": "[2]; [5]", "result": "C (C = conforms to specifications)"}, {"measurement": "pH", "setting": "[2]; [6]", "result": "C (C = conforms to specifications)"}, {"measurement": "pH", "setting": "[2]; [7]", "result": "C (C = conforms to specifications)"}, {"measurement": "pH", "setting": "[2]; [8]", "result": "C (C = conforms to specifications)"}, {"measurement": "pH", "setting": "[2]; [9]", "result": "C (C = conforms to specifications)"}, {"measurement": "pH", "setting": "[2]; [10]", "result": "C (C = conforms to specifications)"}, {"measurement": "pH", "setting": "[2]; [11]", "result": "C (C = conforms to specifications)"}, {"measurement": "pH", "setting": "[2]; [12]", "result": "C (C = conforms to specifications)"}, {"measurement": "pH", "setting": "[2]; [13]", "result": "C (C = conforms to specifications)"}, {"measurement": "pH", "setting": "[2]; [14]", "result": "C (C = conforms to specifications)"}, {"measurement": "pH", "setting": "[2]; [15]", "result": "C (C = conforms to specifications)"}, {"measurement": "pH", "setting": "[2]; [16]", "result": "C (C = conforms to specifications)"}, {"measurement": "pH", "setting": "[2]; [17]", "result": "C (C = conforms to specifications)"}, {"measurement": "pH", "setting": "[2]; [18]", "result": "C (C = conforms to specifications)"}, {"measurement": "pH", "setting": "[2]; 25 mg ascorbic acid, 10.2 mCi, 0.97 mCi/mL, IRE Galli Eo, n=1, T0", "result": "C (C = all results conform to specifications)"}, {"measurement": "pH", "setting": "[2]; 25 mg ascorbic acid, 10.2 mCi, 0.97 mCi/mL, IRE Galli Eo, n=1, T1 (1 h)", "result": "C (C = all results conform to specifications)"}, {"measurement": "pH", "setting": "[2]; 25 mg ascorbic acid, 19.5-20.0 mCi, 1.85-1.90 mCi/mL, EZAG GalliaPharm, n=2, T0", "result": "C (C = all results conform to specifications)"}, {"measurement": "pH", "setting": "[2]; 25 mg ascorbic acid, 19.5-20.0 mCi, 1.85-1.90 mCi/mL, EZAG GalliaPharm, n=2, T1 (1 h)", "result": "C (C = all results conform to specifications)"}, {"measurement": "pH", "setting": "[2]; 25 mg ascorbic acid, 23.3-24 mCi, 2.22-2.28 mCi/mL, IRE Galli Eo, n=2, T0", "result": "C (C = all results conform to specifications)"}, {"measurement": "pH", "setting": "[2]; 25 mg ascorbic acid, 23.3-24 mCi, 2.22-2.28 mCi/mL, IRE Galli Eo, n=2, T4 (4 h)", "result": "C (C = all results conform to specifications)"}, {"measurement": "pH", "setting": "[2]; 25 mg ascorbic acid, 46.0-46.1 mCi, 4.38-4.39 mCi/mL, EZAG GalliaPharm, n=2, T0", "result": "C (C = all results conform to specifications)"}, {"measurement": "pH", "setting": "[2]; 25 mg ascorbic acid, 46.0-46.1 mCi, 4.38-4.39 mCi/mL, EZAG GalliaPharm, n=2, T4 (4 h)", "result": "C (C = all results conform to specifications)"}]}]}
